Values after ≈ are worked out from the molar mass of the structure shown.

Here are results for one compound from ChEMBL document CHEMBL1141791, “A cytotoxic sesquiterpene alkaloid from the South China Sea gorgonian Subergorgia suberosa” (J Nat Prod, 2005).

This test has as its system MDA-MB-231. Kind of test: Cytotoxicity against human MDA-MB-231 cells by MTT method. The class given is functional, cell-based.

`C[C@H]1CC[C@H]2[C@H]3CC(=O)[C@H](Cn4c(O)nc5c(O)ncnc54)[C@]31CC2(C)C` registered an IC50 of 8.87 µg/mL (≈ 23.9 µM).
